Data published in US6737383B1, “Herbicidal oxadiazolidines” (priority 1999, dated 2004).

Legend:
common pursiane = assay: Test D common purslane; format: in vivo, Portulaca oleracea; settings: Preemergence, 0 to 100 scale
Method in brief: (§1)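 Each weed species is planted in its own pot or compartment; preemergence doses go on the sandy loam surface within a day. The formulation is a surfactant-containing, non-phytotoxic solvent blend. Ratings come from visual comparison with untreated controls 14 to 21 days later, where 100 means complete control.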

common ragweed = assay: Test D common ragweed; format: in vivo, Ambrosia elatior; settings: Preemergence, 0 to 100 scale
Method in brief: as §1

common groundsel = assay: Test D common groundsel; format: in vivo, Senecio vulgaris; settings: Preemergence, 0 to 100 scale
Method in brief: as §1

dallisgrass = assay: Test D dallisgrass; format: in vivo, Paspalum dilatatum; settings: Preemergence, 0 to 100 scale
Method in brief: as §1

goosegrass = assay: Test D goosegrass; format: in vivo, Eleusine indica; settings: Preemergence, 0 to 100 scale
Method in brief: as §1

guineagrass = assay: Test D guineagrass; format: in vivo, Panicum maximum; settings: Preemergence, 0 to 100 scale
Method in brief: as §1

itchgrass = assay: Test D itchgrass; format: in vivo, Rottboellia exaltata; settings: Preemergence, 0 to 100 scale
Method in brief: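 Scoring used a 0–100 visual injury scale, with 0 meaning no effect and 100 complete control, assessed 14–21 days after application alongside untreated pots. Preemergence treatments went onto sandy loam surfaces of separately potted seeds within a day of sowing.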

Johnson grass = assay: Test D Johnson grass; format: in vivo, Sorghum halepense; settings: Preemergence, 0 to 100 scale
Method in brief: as §1

large crabgrass = assay: Test D large crabgrass; format: in vivo, Digitaria sanguinalis; settings: Preemergence, 0 to 100 scale
Method in brief: as §1

pitted morningglory = assay: Test D pitted morningglory; format: in vivo, Ipomoea lacunosa; settings: Preemergence, 0 to 100 scale
Method in brief: as §1

purple nutsedge = assay: Test D purple nutsedge; format: in vivo, Cyperus rotundus; settings: Preemergence, 0 to 100 scale
Method in brief: as §1

sandbur = assay: Test D sandbur; format: in vivo, Cenchrus echinatus; settings: Preemergence, 0 to 100 scale
Method in brief: as §1

Spanishneedles = assay: Test D Spanishneedles; format: in vivo, Bidens bipinnata; settings: Preemergence, 0 to 100 scale
Method in brief: as §1

surinam grass = assay: Test D surinam grass; format: in vivo, Brachiaria decumbens
Method in brief: as §1

tall mallow = assay: Test D tall mallow; format: in vivo, Malva sylvestris; settings: Preemergence, 0 to 100 scale
Method in brief: as §1

Green foxtail [1] = assay: Test D green foxtail; format: in vivo; settings: Preemergence, 0 to 100 scale
Method in brief: as §1

Green foxtail [2] = assay: Test D green foxtail; format: in vivo
Method in brief: as §1

[3] = Rate 16 g/ha, 0 no injury, 100 complete control
[4] = Rate 32 g/ha, 0 no injury, 100 complete control
[5] = Rate 64 g/ha, 0 no injury, 100 complete control
[6] = Rate 125 g/ha, 0 no injury, 100 complete control
[7] = Rate 16 g/ha; Preemergence; 0 to 100 scale, 0 no injury, 100 complete control
[8] = Rate 32 g/ha; Preemergence; 0 to 100 scale, 0 no injury, 100 complete control
[9] = Rate 64 g/ha, Preemergence; 0 to 100 scale, 0 no injury, 100 complete control
[10] = Rate 125 g/ha, Preemergence; 0 to 100 scale, 0 no injury, 100 complete control
[11] = Rate 250 g/ha; Preemergence; 0 to 100 scale
[12] = Rate 500 g/ha, Preemergence; 0 to 100 scale

CC(C)N(C(=O)n1oc(=O)n(Cc2ccccc2)c1=O)c1ccc(F)cc1 [Compound 78]
Plant response rating, C. purslane (common pursiane; [3]): 0
Plant response rating, C. purslane (common pursiane; [4]): 0
Plant response rating, C. purslane (common pursiane; [5]): 0
Plant response rating, C. purslane (common pursiane; [6]): 0
Plant response rating, C. purslane (common pursiane; Rate 250 g/ha): 0
Plant response rating, C. purslane (common pursiane; Rate 500 g/ha): 0
Plant response rating, C. ragweed (common ragweed; [3]): 0
Plant response rating, C. ragweed (common ragweed; [4]): 0
Plant response rating, C. ragweed (common ragweed; [5]): 0
Plant response rating, C. ragweed (common ragweed; [6]): 0
Plant response rating, C. ragweed (common ragweed; Rate 250 g/ha): 0
Plant response rating, C. ragweed (common ragweed; Rate 500 g/ha): 0
Plant response rating, Com. groundsel (common groundsel; [3]): 0
Plant response rating, Com. groundsel (common groundsel; [4]): 0
Plant response rating, Com. groundsel (common groundsel; [5]): 0
Plant response rating, Com. groundsel (common groundsel; [6]): 0
Plant response rating, Com. groundsel (common groundsel; Rate 250 g/ha): 0
Plant response rating, Com. groundsel (common groundsel; Rate 500 g/ha): 0
Plant response rating, Dallisgrass (dallisgrass; [3]): 0
Plant response rating, Dallisgrass (dallisgrass; [4]): 0
Plant response rating, Dallisgrass (dallisgrass; [5]): 75
Plant response rating, Dallisgrass (dallisgrass; [6]): 100
Plant response rating, Dallisgrass (dallisgrass; Rate 250 g/ha): 100
Plant response rating, Dallisgrass (dallisgrass; Rate 500 g/ha): 100
Plant response rating, Goosegrass (goosegrass; [3]): 10
Plant response rating, Goosegrass (goosegrass; [4]): 10
Plant response rating, Goosegrass (goosegrass; [5]): 85
Plant response rating, Goosegrass (goosegrass; [6]): 98
Plant response rating, Goosegrass (goosegrass; Rate 250 g/ha): 98
Plant response rating, Goosegrass (goosegrass; Rate 500 g/ha): 100
Plant response rating, Guineagrass (guineagrass; [3]): 20
Plant response rating, Guineagrass (guineagrass; [4]): 20
Plant response rating, Guineagrass (guineagrass; [5]): 65
Plant response rating, Guineagrass (guineagrass; [6]): 85
Plant response rating, Guineagrass (guineagrass; Rate 250 g/ha): 100
Plant response rating, Guineagrass (guineagrass; Rate 500 g/ha): 100
Plant response rating, Itchgrass (itchgrass; [3]): 0
Plant response rating, Itchgrass (itchgrass; [4]): 0
Plant response rating, Itchgrass (itchgrass; [5]): 0
Plant response rating, Itchgrass (itchgrass; [6]): 0
Plant response rating, Itchgrass (itchgrass; Rate 250 g/ha): 10
Plant response rating, Itchgrass (itchgrass; Rate 500 g/ha): 20
Plant response rating, Johnsongrass (Johnson grass; [3]): 0
Plant response rating, Johnsongrass (Johnson grass; [4]): 0
Plant response rating, Johnsongrass (Johnson grass; [5]): 0
Plant response rating, Johnsongrass (Johnson grass; [6]): 0
Plant response rating, Johnsongrass (Johnson grass; Rate 250 g/ha): 20
Plant response rating, Johnsongrass (Johnson grass; Rate 500 g/ha): 20
Plant response rating, Large crabgrass (large crabgrass; [3]): 0
Plant response rating, Large crabgrass (large crabgrass; [4]): 40
Plant response rating, Large crabgrass (large crabgrass; [5]): 98
Plant response rating, Large crabgrass (large crabgrass; [6]): 100
Plant response rating, Large crabgrass (large crabgrass; Rate 250 g/ha): 100
Plant response rating, Large crabgrass (large crabgrass; Rate 500 g/ha): 100
Plant response rating, P. morninglory (pitted morningglory; [3]): 0
Plant response rating, P. morninglory (pitted morningglory; [4]): 0
Plant response rating, P. morninglory (pitted morningglory; [5]): 0
Plant response rating, P. morninglory (pitted morningglory; [6]): 0
Plant response rating, P. morninglory (pitted morningglory; Rate 250 g/ha): 0
Plant response rating, P. morninglory (pitted morningglory; Rate 500 g/ha): 0
Plant response rating, Purple nutsedge (purple nutsedge; [3]): 0
Plant response rating, Purple nutsedge (purple nutsedge; [4]): 0
Purple nutsedge plant response rating (purple nutsedge; [5]): 0
Purple nutsedge plant response rating (purple nutsedge; [6]): 0
Plant response rating, Purple nutsedge (purple nutsedge; Rate 250 g/ha): 0
Plant response rating, Purple nutsedge (purple nutsedge; Rate 500 g/ha): 0
Plant response rating, Sandbur (sandbur; [3]): 0
Plant response rating, Sandbur (sandbur; [4]): 0
Sandbur plant response rating (sandbur; [5]): 0
Sandbur plant response rating (sandbur; [6]): 0
Plant response rating, Sandbur (sandbur; Rate 250 g/ha): 75
Plant response rating, Sandbur (sandbur; Rate 500 g/ha): 80
Plant response rating, Spanishneedles (Spanishneedles; [3]): 0
Plant response rating, Spanishneedles (Spanishneedles; [4]): 0
Spanishneedles plant response rating (Spanishneedles; [5]): 0
Spanishneedles plant response rating (Spanishneedles; [6]): 0
Plant response rating, Spanishneedles (Spanishneedles; Rate 500 g/ha): 0
Plant response rating, Surinam grass (surinam grass; [7]): 0
Plant response rating, Surinam grass (surinam grass; [8]): 0
Surinam grass plant response rating (surinam grass; [9]): 20
Surinam grass plant response rating (surinam grass; [10]): 30
Plant response rating, Surinam grass (surinam grass; [11]): 85
Plant response rating, Surinam grass (surinam grass; [12]): 96
Plant response rating, Surinam grass (surinam grass; Rate 500 g/ha; Preemergence; 0 to 100 scale): 98
Plant response rating, Tall Mallow (tall mallow; [3]): 0
Plant response rating, Tall Mallow (tall mallow; [4]): 0
Tall Mallow plant response rating (tall mallow; [5]): 0
Tall Mallow plant response rating (tall mallow; [6]): 0
Plant response rating, Tall Mallow (tall mallow; Rate 250 g/ha): 0
Plant response rating, Tall Mallow (tall mallow; Rate 500 g/ha): 0
Plant response rating, Green foxtail (Green foxtail [1]; Rate 250 g/ha): 100
Plant response rating, Green foxtail (Green foxtail [1]; Rate 500 g/ha): 100
Plant response rating, Green foxtail (Green foxtail [2]; Preemergence; Rate 16 g/ha; 0 to 100 scale, 0 no injury, 100 complete control): 0
Plant response rating, Green foxtail (Green foxtail [2]; Preemergence; Rate 32 g/ha; 0 to 100 scale, 0 no injury, 100 complete control): 75
Plant response rating, Green foxtail (Green foxtail [2]; [7]): 0
Plant response rating, Green foxtail (Green foxtail [2]; [8]): 75
Green foxtail plant response rating (Green foxtail [2]; [9]): 85
Plant response rating, Green foxtail (Green foxtail [2]; [9]): 85
Green foxtail plant response rating (Green foxtail [2]; [10]): 100
Plant response rating, Green foxtail (Green foxtail [2]; [10]): 100
Plant response rating, Green foxtail (Green foxtail [2]; [11]): 100
Plant response rating, Green foxtail (Green foxtail [2]; [12]): 100
